# Experimental data reported in patent US8974836B2, “Angiogenesis regulating composition and method for regulating angiogenesis” (Air Water, Inc., priority 2009, dated 2015).
# Read-outs that look alike come from different tables or passages of the source.
# Assays:
# [1] = in vivo; cited from earlier work
# [2] = system: model mice of oxygen-induced retinal angiogenesis; test: Exemplary experiment 2: suppression of pathologic neovascularization (pathological vessels extending into the vitreum); type: in vivo, C57BL/6J mouse; details: for number of pathological vessels breaking the inner limiting membrane and extending into the vitreum: 15 or 75 μmol/kg once per day P7-P16, P17, FIG. 2, versus physiological saline
# Protocol: The effect of sodium nitrate and sodium nitrite for suppression of pathologic neovascularization by oxygen-induced retinal vascularized model was evaluated.
# (§1) Sodium nitrate or sodium nitrite as a test compound was dissolved in physiological saline for injection to prepare a test compound injection of […].
# C57BL/6J mouse (SLC) was used as an experimental animal. The model mice of oxygen-induced retinal angiogenesis were prepared according to exemplary experiment 1. Sodium nitrate or sodium nitrite was injected to a cervical region hypodermically once per day in amount of 15 or 75 μmol/kg for ten days from the 7th day (P7) to the 16th day (P16) after birth. In addition, physiological saline as controls was similarly injected hypodermically instead of test compound.
# On the 17th day after birth (P17), the mice were euthanised by overdose of pentobarbital, and eyes were removed together with optic nerve. The eyes were washed in physiological saline, excessive tissues were excised, and the eyes were thus fixed in a 4% paraformaldehyde phosphate buffer for 12 hours. After the fixation, the eyes were dehydrated by immersing in a graded ethanol series of 70-100% sequentially and were embedded in paraffin.
# [3] = Exemplary experiment 6: plasma concentration of nitrate ions after administration; details: P12, average
# Protocol: as §1
# C57BL/6J mouse (SLC) was used as an experimental animal. The model mice of oxygen-induced retinal angiogenesis were prepared according to exemplary experiment 1. […] Thereafter, isoflurane was used to anesthetize the mice, and 150 μl of blood was collected from the abdominal aorta over time. Plasma concentration of nitrate ions was measured by ion exchange chromatography using a normal phase column under the following conditions:
# Conditions for Ion Exchange Chromatography • Separation column: Asahipak NH2P-50 4E (4.6 mm×250 mm) • Guard column: Inertsil NH2 (5 μm) (4 mm×10 mm) • Mobile phase: 10 mM of sodium dihydrogenphosphate, 150 mM of sodium perchlorate, 5.0 • Flow rate: 0.7 ml/min • Detection wavelength: 210 nm
# [4] = system: model mice of oxygen-induced retinal angiogenesis; test: Exemplary experiment 3: regulation of retinal angiogenesis, administration from start of angiogenesis (P12); type: in vivo, C57BL/6J mouse; details: for value of areal ratio of retinal avascular area / value of retinal avascular area: 15 μmol/kg hypodermically once per day P12-P16, average; for reduction of retinal avascular area in comparison with a control group: 15 μmol/kg, administered from the start of retinal angiogenesis (P12)
# Protocol: For the model mice of oxygen-induced retinal angiogenesis, retinal angiogenesis is induced by providing 75% oxygen followed by breeding in room air during P12-P17.
# Sodium nitrate or sodium nitrite as a test compound was dissolved in physiological saline for injection to prepare a test compound injection of […].
# Preparation of the model mice of oxygen-induced retinal angiogenesis, fluorescent imaging of retinal vessels and a retinal flat-mount were operated according to exemplary experiment 1. However sodium nitrate or sodium nitrite was injected to a cervical region hypodermically once per day in amount of 15 μmol/kg for […] from the 12th day (P12) to the 16th day (P16) after birth. In addition, physiological saline as controls was similarly injected hypodermically instead of test compound for the same period of time.
# (§2) Areal ratio of retinal avascular area was calculated pursuant to exemplary experiment 1.
# [5] = system: model mice of oxygen-induced retinal angiogenesis; details: for retinal avascular area reduced as compared to control group: 15 or 75 μmol/kg once per day P7-P16, versus physiological saline
# From the text: C57BL/6J mouse (SLC) was used as an experimental animal. […] Neonatal mice were bred from the 7th day (P7) to the 12th day (P12) after birth together with a parent mouse in a cage of high levels of oxygen (75±1% of O2) controlled by oxygen control equipment (PRO-OX110, produced by Reming Bioinstruments Co) to provide high levels of oxygen (75±1% of O2). Retinal angiogenesis was induced by breeding under normoxic condition (21% of O2) from the 12th day to the 17th day after birth. […] In addition, physiological saline as controls was similarly injected hypodermically instead of test compound.
# Fifty micro grams per animal of fluorescein-conjugated dextran (FITC-dextran; M.W. 2×10^6, produced by SIGMA) were systemically perfused from the left ventricle under deep anesthesia with pentobarbital on the 17th day after birth (P17). After the perfusion, eyes of mouse were removed and fixed in a 4% paraformaldehyde phosphate buffer for 4-12 hours. After the fixation, the cornea and the lens were excised from eye, and the residual hyaloid artery was removed by micro tweezers. The retina was separated under a microscope, and subsequently set flat and embedded in [sequence] (produced by Vector Laboratories Inc.) for preparation of a retinal flat-mount.
# Flat mounted retinas were imaged with a high sensitivity CCD camera under a fluorescent inverted microscope (Olympus IX71). A value of total retinal area and a value of retinal avascular area in obtained image were converted to numeric data by Photoshop CS4 extended (Adobe), and a value of areal ratio of retinal avascular area in comparison with the value of total retinal area was calculated by the following equation: value of areal ratio of retinal avascular area=value of retinal avascular area (μm^2)/value of total retinal area (μm^2)×100
# [6] = system: model mice of oxygen-induced retinal angiogenesis; test: Exemplary experiment 4: nitrite versus general-purpose nitrogen monoxide donor drugs, retinal avascular area; type: in vivo, C57BL/6J mouse
# Protocol: Preparation of the model mice of oxygen-induced retinal angiogenesis, fluorescent imaging of retinal vessels and a retinal flat-mount were operated according to exemplary experiment 1.
# as §2
# [7] = system: methemoglobinemia; details: reported for Rodentia; cited from earlier work
# [8] = system: model mice of oxygen-induced retinal angiogenesis; test: Exemplary experiment 5: nitrite versus anti-VEGF antibody, retinal avascular area; type: in vivo, C57BL/6J mouse; details: 15 μmol/kg hypodermically once per day P7-P16, average
# Protocol: Using the model mice of oxygen-induced retinal angiogenesis, a comparison was made about retinopathy treatment effect between nitrite and an anti-VEGF antibody used for treatment of progressive colorectal cancer, age-related macular degeneration and so on.
# Sodium nitrite as a test compound was dissolved in physiological saline for injection to prepare a test compound injection of 3 μmol/ml. For a comparative example, a murine monoclonal anti-VEGF antibody (produced by SANTACRUZ BIOTECHNOLOGY, INC.) was condensed to prepare 500 μg IgG/ml of an injection for the comparative example.
# Preparation of the model mice of oxygen-induced retinal angiogenesis, fluorescent imaging of retinal vessels and a retinal flat-mount were operated according to exemplary experiment 1. Sodium nitrite was injected to a cervical region hypodermically once per day in amount of 15 μmol/kg for ten days from the 7th day (P7) to the 16th day (P16) after birth. The anti-VEGF antibody was injected through the corneal limbus to the vitreous body with a microsyringe equipped with a 33G hypodermic needle, by cutting mice eyelids open when oxygenation ended (on the 12th day alter birth).
# as §2
# [9] = 75 μmol/kg hypodermically once per day P7-P16, evaluated P17, average
# [10] = 15 μmol/kg hypodermically once per day P7-P16, average
# [11] = 15 μmol/kg hypodermically once per day P7-P16, evaluated P17, average
# [12] = 20 μmol/kg hypodermically once per day P7-P16, average
smiles,measurement,setting,value
O=[N+]([O-])[O-].[Na+] [sodium nitrate],nitrate having entered systemic circulation secreted in saliva,[1],approximately 25%
same,portion of nitrate in saliva reduced to nitrite by dental bacteria,[1],approximately 30%
same,number of pathological vessels breaking the inner limiting membrane and extending into the vitreum,[2],decreased
same,maximum plasma concentration of nitrate ions after single-dose administration,[3]; 15 μmol/kg subcutaneously in cervical region,135.38 µmol/L
same,maximum plasma concentration of nitrate ions after single-dose administration,[3]; 75 μmol/kg subcutaneously in cervical region,194.9 µmol/L
same,value of areal ratio of retinal avascular area,[4],8.76%
same,value of retinal avascular area,[4],506451.72 μm^2
same,reduction of retinal avascular area in comparison with a control group,[4],approximately 40%
same,value of areal ratio of retinal avascular area,[5]; [9],12.7%
same,value of retinal avascular area,[5]; [9],842271.02 μm^2
same,retinal avascular area reduced as compared to control group,[5],approximately 20%
O=NO [sodium nitrite],pathological vessels reduced as compared with a control,"[2]; 75 μmol/kg once per day P7-P16, P17",approximately 30%
same,number of pathological vessels breaking the inner limiting membrane and extending into the vitreum,[2],decreased
same,value of areal ratio of retinal avascular area,[6]; [10],6.44%
same,value of retinal avascular area,[6]; [10],417863.94 μm^2
same,maximal no-effect dose for methemoglobinemia,[7],84 mg/kg/day
same,value of areal ratio of retinal avascular area,[8],9.3%
same,value of retinal avascular area,[8],621218.70 μm^2
same,value of areal ratio of retinal avascular area,[8]; listed as nitrite,9.3%
same,value of areal ratio of retinal avascular area,[4],9.3%
same,value of retinal avascular area,[4],621218.70 μm^2
same,reduction of retinal avascular area in comparison with a control group,[4],approximately 40%
same,value of areal ratio of retinal avascular area,[5]; [11],6.44%
same,value of retinal avascular area,[5]; [11],417863.94 μm^2
same,value of areal ratio of retinal avascular area,[5]; [9],10.01%
same,value of retinal avascular area,[5]; [9],571705.28 μm^2
same,retinal avascular area reduced as compared to control group,[5],40-60%
"O=[N+]([O-])OCC(CO[N+](=O)[O-])O[N+](=O)[O-] [NTG, nitroglycerin]",value of areal ratio of retinal avascular area,[6]; [12],21.36%
same,value of retinal avascular area,[6]; [12],1456421.33 μm^2
same,retinal avascular area increased in comparison with a group administered with nitrite,"[6]; SNP 2 μmol/kg, NTG 20 μmol/kg versus sodium nitrite 15 μmol/kg, P7-P16",approximately 3.3 times
same,"reduction of avascular area (typical symptom of retinopathy), in words","[6]; SNP 2 μmol/kg, NTG 20 μmol/kg, once per day P7-P16",Neither SNP nor NTG was observed to reduce
